Assay results published in the supplement of paper PMC10883282.
± gives the standard deviation of the averaged measurements.

What was measured:
Assay in all cases: relative viability vs DMSO control (72 h) (fraction); higher = more viable cells
[1] = test system: SW872
Summary of the method: (§1)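 Sarcoma cell lines went into 384-well plates at densities chosen to reach 80–90% confluence. After 24 h, each well received 2.5 µl of serially diluted compound, with source plates running from 10 mM to 0.0002 mM, and the plates were kept 72 h at 37 °C, 5% CO2, alongside 0.1% DMSO vehicle and a 5 µM positive control. Relative viability was derived from ATPLite readings as percent growth and averaged over up to triplicate wells. The data were then rescaled so that 1 stands for full and 0 for none.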

[2] = test system: RD
Summary of the method: as §1

[3] = test system: A204
Summary of the method: as §1

[4] = test system: VA-ES-BJ
Summary of the method: as §1

[5] = test system: SYO-1
Summary of the method: as §1

[6] = test system: HS729
Summary of the method: as §1

[7] = test system: KHOS-NP
Summary of the method: as §1

[8] = test system: G401
Summary of the method: as §1

[9] = test system: SK-ES-1
Summary of the method: as §1

[10] = test system: SK-LMS-1
Summary of the method: as §1

[11] = test system: MES-SA
Summary of the method: as §1

[12] = test system: SW684
Summary of the method: as §1

Cc1cc(F)c(C(=O)Nc2cccc(-c3nncn3C(C)C)n2)cc1-n1cnc(C2CC2)c1 [Selonsertib]
relative viability ([1]; 0.00017 µM): 0.995 ± 0.016
relative viability ([1]; 0.00051 µM): 1 ± 0.03
relative viability ([1]; 0.00152 µM): 1.02 ± 0.014
relative viability ([1]; 0.00457 µM): 1.03 ± 0.045
relative viability ([1]; 0.01372 µM): 1.03 ± 0.015
relative viability ([1]; 0.04115 µM): 1.04 ± 0.031
relative viability ([1]; 0.1235 µM): 1.06 ± 0.031
relative viability ([1]; 0.3704 µM): 1.05 ± 0.043
relative viability ([1]; 1.111 µM): 1.08 ± 0.021
relative viability ([1]; 3.333 µM): 1.07 ± 0.053
relative viability ([1]; 10 µM): 1.05 ± 0.022
relative viability ([2]; 0.00017 µM): 1.11 ± 0.017
relative viability ([2]; 0.00051 µM): 1.11 ± 0.037
relative viability ([2]; 0.00152 µM): 1.09 ± 0.015
relative viability ([2]; 0.00457 µM): 1.1 ± 0.053
relative viability ([2]; 0.01372 µM): 1.11 ± 0.017
relative viability ([2]; 0.04115 µM): 1.1 ± 0.014
relative viability ([2]; 0.1235 µM): 1.09 ± 0.016
relative viability ([2]; 0.3704 µM): 1.11 ± 0.023
relative viability ([2]; 1.111 µM): 1.12 ± 0.02
relative viability ([2]; 3.333 µM): 1.11 ± 0.022
relative viability ([2]; 10 µM): 1.11 ± 0.024
relative viability ([3]; 0.00017 µM): 1.07 ± 0.067
relative viability ([3]; 0.00051 µM): 1.02 ± 0.015
relative viability ([3]; 0.00152 µM): 1.03 ± 0.077
relative viability ([3]; 0.00457 µM): 1.09 ± 0.053
relative viability ([3]; 0.01372 µM): 1.07 ± 0.034
relative viability ([3]; 0.04115 µM): 1.08 ± 0.028
relative viability ([3]; 0.1235 µM): 1.1 ± 0.052
relative viability ([3]; 0.3704 µM): 1.07 ± 0.034
relative viability ([3]; 1.111 µM): 1.01 ± 0.014
relative viability ([3]; 3.333 µM): 0.802 ± 0.042
relative viability ([3]; 10 µM): 0.389 ± 0.0071
relative viability ([4]; 0.00017 µM): 0.995 ± 0.025
relative viability ([4]; 0.00051 µM): 0.995 ± 0.026
relative viability ([4]; 0.00152 µM): 1.01 ± 0.047
relative viability ([4]; 0.00457 µM): 0.972 ± 0.059
relative viability ([4]; 0.01372 µM): 0.989 ± 0.039
relative viability ([4]; 0.04115 µM): 0.977 ± 0.039
relative viability ([4]; 0.1235 µM): 0.967 ± 0.039
relative viability ([4]; 0.3704 µM): 0.969 ± 0.011
relative viability ([4]; 1.111 µM): 0.938 ± 0.029
relative viability ([4]; 3.333 µM): 0.918 ± 0.047
relative viability ([4]; 10 µM): 0.848 ± 0.044
relative viability ([5]; 0.00017 µM): 0.95 ± 0.034
relative viability ([5]; 0.00051 µM): 0.947 ± 0.04
relative viability ([5]; 0.00152 µM): 0.949 ± 0.045
relative viability ([5]; 0.00457 µM): 0.94 ± 0.025
relative viability ([5]; 0.01372 µM): 0.95 ± 0.039
relative viability ([5]; 0.04115 µM): 0.965 ± 0.019
relative viability ([5]; 0.1235 µM): 0.944 ± 0.029
relative viability ([5]; 0.3704 µM): 0.921 ± 0.068
relative viability ([5]; 1.111 µM): 0.886 ± 0.087
relative viability ([5]; 3.333 µM): 0.828 ± 0.08
relative viability ([5]; 10 µM): 0.5622 ± 0.0028
relative viability ([6]; 0.00017 µM): 0.914 ± 0.041
relative viability ([6]; 0.00051 µM): 0.917 ± 0.051
relative viability ([6]; 0.00152 µM): 0.92 ± 0.07
relative viability ([6]; 0.00457 µM): 0.973 ± 0.03
relative viability ([6]; 0.01372 µM): 0.936 ± 0.043
relative viability ([6]; 0.04115 µM): 0.942 ± 0.041
relative viability ([6]; 0.1235 µM): 0.888 ± 0.054
relative viability ([6]; 0.3704 µM): 0.933 ± 0.029
relative viability ([6]; 1.111 µM): 0.875 ± 0.025
relative viability ([6]; 3.333 µM): 0.94 ± 0.031
relative viability ([6]; 10 µM): 0.943 ± 0.11
relative viability ([7]; 0.00017 µM): 1.04 ± 0.026
relative viability ([7]; 0.00051 µM): 1.05 ± 0.037
relative viability ([7]; 0.00152 µM): 1.042 ± 0.0043
relative viability ([7]; 0.00457 µM): 1.06 ± 0.035
relative viability ([7]; 0.01372 µM): 1.06 ± 0.021
relative viability ([7]; 0.04115 µM): 1.07 ± 0.014
relative viability ([7]; 0.1235 µM): 1.07 ± 0.0052
relative viability ([7]; 0.3704 µM): 0.911 ± 0.29
relative viability ([7]; 1.111 µM): 1.06 ± 0.03
relative viability ([7]; 3.333 µM): 1.02 ± 0.024
relative viability ([7]; 10 µM): 0.707 ± 0.026
relative viability ([8]; 0.00017 µM): 1.02 ± 0.018
relative viability ([8]; 0.00051 µM): 0.988 ± 0.027
relative viability ([8]; 0.00152 µM): 1.01 ± 0.024
relative viability ([8]; 0.00457 µM): 1.01 ± 0.015
relative viability ([8]; 0.01372 µM): 0.995 ± 0.029
relative viability ([8]; 0.04115 µM): 1.04 ± 0.051
relative viability ([8]; 0.1235 µM): 1.01 ± 0.028
relative viability ([8]; 0.3704 µM): 0.994 ± 0.056
relative viability ([8]; 1.111 µM): 0.979 ± 0.017
relative viability ([8]; 3.333 µM): 0.882 ± 0.054
relative viability ([8]; 10 µM): 0.684 ± 0.038
relative viability ([9]; 0.00017 µM): 1.01 ± 0.11
relative viability ([9]; 0.00051 µM): 1.05 ± 0.05
relative viability ([9]; 0.00152 µM): 1.03 ± 0.034
relative viability ([9]; 0.00457 µM): 1.09 ± 0.015
relative viability ([9]; 0.01372 µM): 1.08 ± 0.065
relative viability ([9]; 0.04115 µM): 1.03 ± 0.046
relative viability ([9]; 0.1235 µM): 1.03 ± 0.079
relative viability ([9]; 0.3704 µM): 1.01 ± 0.046
relative viability ([9]; 1.111 µM): 0.988 ± 0.078
relative viability ([9]; 3.333 µM): 0.896 ± 0.076
relative viability ([9]; 10 µM): 0.313 ± 0.067
relative viability ([10]; 0.00017 µM): 1.07 ± 0.04
relative viability ([10]; 0.00051 µM): 1.08 ± 0.036
relative viability ([10]; 0.00152 µM): 1.08 ± 0.054
relative viability ([10]; 0.00457 µM): 1.09 ± 0.019
relative viability ([10]; 0.01372 µM): 1.11 ± 0.054
relative viability ([10]; 0.04115 µM): 1.09 ± 0.012
relative viability ([10]; 0.1235 µM): 1.09 ± 0.039
relative viability ([10]; 0.3704 µM): 1.09 ± 0.046
relative viability ([10]; 1.111 µM): 1.04 ± 0.026
relative viability ([10]; 3.333 µM): 1.05 ± 0.029
relative viability ([10]; 10 µM): 0.898 ± 0.022
relative viability ([11]; 0.00017 µM): 0.887 ± 0.034
relative viability ([11]; 0.00051 µM): 0.892 ± 0.021
relative viability ([11]; 0.00152 µM): 0.907 ± 0.03
relative viability ([11]; 0.00457 µM): 0.893 ± 0.0091
relative viability ([11]; 0.01372 µM): 0.895 ± 0.03
relative viability ([11]; 0.04115 µM): 0.93 ± 0.025
relative viability ([11]; 0.1235 µM): 0.928 ± 0.034
relative viability ([11]; 0.3704 µM): 0.912 ± 0.024
relative viability ([11]; 1.111 µM): 0.87 ± 0.024
relative viability ([11]; 3.333 µM): 0.78 ± 0.02
relative viability ([11]; 10 µM): 0.368 ± 0.012
relative viability ([12]; 0.00017 µM): 1.15 ± 0.031
relative viability ([12]; 0.00051 µM): 1.136 ± 0.0042
relative viability ([12]; 0.00152 µM): 1.14 ± 0.016
relative viability ([12]; 0.00457 µM): 1.15 ± 0.03
relative viability ([12]; 0.01372 µM): 1.2 ± 0.024
relative viability ([12]; 0.04115 µM): 1.14 ± 0.013
relative viability ([12]; 0.1235 µM): 1.11 ± 0.024
relative viability ([12]; 0.3704 µM): 1.12 ± 0.029
relative viability ([12]; 1.111 µM): 1.1 ± 0.035
relative viability ([12]; 3.333 µM): 1.13 ± 0.04
relative viability ([12]; 10 µM): 1.012 ± 0.0029
